Measured values taken from article PMC3125126 (European journal of pharmacology, 2010).
Several values for one entry are separate records, joined by “and”; a condition that tells them apart may be missing. Equal entries are not always repeated. Where two headings read alike, the source gives them in different places.

Key:
[1] = ref Sugama et al., 2005; Nakamura et al., 2004; cited from earlier work
[2] = system: GTP binding regulatory proteins; details: ref Higashijima et al., 1988; cited from earlier work
[3] = system: Ca2+-independent phospholipase A2; details: ref Yang et al., 1999; cited from earlier work
[4] = system: Ca2+-dependent phospholipase A2; details: ref Street et al., 1993; cited from earlier work
[5] = system: phospholipase C activity in HEK-D2-hDAT cells; assay type: cell-based, human
HEK-D2-hDAT cells = assay: [3H]Arachidonic acid release from preloaded cells; assay type: cell-based, human; details: quinpirole 1 nM to 10 µM; loaded 4 or 24 hours; data not shown
dopamine transporter [6] = details: ref Chen et al., 2003, cited from earlier work
rat Leydig cells = details: ref Ronco et al., 2002; cited from earlier work
[7] = system: rat (ventral tegmental area); details: pretreatment with quinacrine; ref Reid et al., 1996; cited from earlier work
[8] = system: phospholipase A2 activity in HEK-D2-hDAT cells; assay: Phospholipase A2 activity after cell treatment; assay type: cell-based, human; details: melittin 10 µM and/or quinacrine 10 µM, 30 min; n=3; not significant P>0.05
dopamine transporter [9] = details: ref Daniels and Amara, 1999; cited from earlier work
[10] = target: T1, human dopamine transporter (hDAT) (Homo sapiens, UniProt Q01959); assay: Dopamine transporter internalization by biotinylation; assay type: cell-based
T1 sequence (Q01959 whole entry): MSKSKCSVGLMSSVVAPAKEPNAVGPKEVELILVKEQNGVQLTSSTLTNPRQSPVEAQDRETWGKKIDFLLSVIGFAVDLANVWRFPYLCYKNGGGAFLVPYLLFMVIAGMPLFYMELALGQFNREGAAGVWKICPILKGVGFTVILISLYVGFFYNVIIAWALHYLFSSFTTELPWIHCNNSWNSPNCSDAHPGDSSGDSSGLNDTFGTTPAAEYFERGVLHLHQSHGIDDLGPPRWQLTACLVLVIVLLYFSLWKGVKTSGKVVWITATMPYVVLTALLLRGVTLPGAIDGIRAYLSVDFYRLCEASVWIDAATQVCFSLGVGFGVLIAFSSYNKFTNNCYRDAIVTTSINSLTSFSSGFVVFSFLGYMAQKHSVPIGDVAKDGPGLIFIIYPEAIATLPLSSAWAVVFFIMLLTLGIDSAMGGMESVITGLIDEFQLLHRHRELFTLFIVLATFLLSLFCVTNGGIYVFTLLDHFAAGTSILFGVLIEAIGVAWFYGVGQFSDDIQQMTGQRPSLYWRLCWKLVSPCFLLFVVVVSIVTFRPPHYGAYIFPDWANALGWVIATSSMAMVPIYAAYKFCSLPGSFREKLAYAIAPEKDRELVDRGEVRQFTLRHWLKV

[11] = system: rat glutamate transporter, EAAT4; details: ref Fairman et al., 1998, Tzingounis et al.; cited from earlier work
protein kinase Cγ = details: bovine cerebellar cells; ref Shearman et al., 1989; cited from earlier work
[12] = system: purified synaptosomes from rat striatum; details: rat striatal synaptosomes; ref L'hirondel et al., 1995; cited from earlier work
dopamine transporter [13] = details: ref Ingram and Amara, 2000; cited from earlier work
glutamate uptake = details: ref Volterra et al., 1992, 1994; cited from earlier work
[14] = target: T1, human dopamine transporter (hDAT); assay: [125I]RTI-55 binding to membranes of HEK-D2-hDAT cells; details: no melittin, 4°C, 16 h, 4 independent experiments
[15] = target: T1, human dopamine transporter (hDAT); assay type: cell-based; details: butaclamol 100 nM added 10 min before uptake, with melittin 30 min pretreatment

mastoparan
effect on membrane lipid rafts [1]: disrupts the membrane lipid rafts | stimulation of GTP binding regulatory proteins [2]: stimulate GTP binding regulatory proteins indirectly

O=C1O/C(=C/Br)CCC1c1cccc2ccccc12 (stereo not shown) [4-bromoenol lactone]
inhibition of Ca2+-independent phospholipase A2 [3]: selectively inhibited

CCCCC/C=C\C/C=C\C/C=C\C/C=C\CCCC(=O)C(F)(F)F [Arachidonyl trifluoromethyl ketone]
inhibition of Ca2+-dependent phospholipase A2 [4]: potent and selective inhibitor

CCCN1CCC[C@@H]2Cc3n[nH]cc3C[C@H]21 [quinpirole]
inositol phosphate-1 concentration ([5]; quinpirole 1 µM, 1 hour, basal 8.3 ± 2.5 nM, n=3, not significant P>0.05): 11.1 ± 2.0 nM | release of loaded [3H]arachidonic acid (HEK-D2-hDAT cells): less than 0.4%

CCCCCCCC/C=C\CCCCCCCC(=O)O [oleic, oleic acid]
dopamine uptake by rotating disk electrode voltammetry (dopamine transporter [6]): inhibit dopamine transporter-mediated uptake, although to a lesser degree

NCCc1ccc(O)c(O)c1 [dopamine]
inositol phosphate-1 concentration [5]: 8.8 ± 3.0 nM

CCN(CC)CCCC(C)Nc1c2ccc(Cl)cc2nc2ccc(OC)cc12 (stereo not shown) [quinacrine]
effect on melittin-induced arachidonic acid release (rat Leydig cells): unable to inhibit melittin-induced release of arachidonic acid | block of melittin-caused sensitization [7]: blocked | phospholipase A2 activity [8]: 134 ± 19 % compared to control

CCCCC/C=C\C/C=C\CCCCCCCC(=O)O [linoleic acid]
dopamine uptake by rotating disk electrode voltammetry (dopamine transporter [6]): inhibit dopamine transporter-mediated uptake, although to a lesser degree

COC(=O)[C@H]1[C@@H](OC(=O)c2ccccc2)C[C@@H]2CC[C@H]1N2C [cocaine]
effect on phorbol ester-induced dopamine transporter internalization (dopamine transporter [9]): does not alter phorbol ester-induced dopamine transporter internalization | dopamine transporter internalization [10]: 97.8 ± 6.2 % of control and 93.9 ± 8.4 % of control

CCCCC/C=C\C/C=C\C/C=C\C/C=C\CCCC(=O)O [arachidonic acid]
effect on proton conductance [11]: alters proton conductance | protein kinase Cγ activation (protein kinase Cγ): can activate protein kinase Cγ | spontaneous dopamine release, dopamine synthesis and uptake [12]: dose-dependently increases spontaneous release of dopamine and decreases dopamine synthesis and uptake | effect on cation conductance (dopamine transporter [13]): directly stimulates a cocaine-sensitive cation conductance | effect on uptake of glutamate (glutamate uptake): inhibits uptake of glutamate | dopamine uptake by rotating disk electrode voltammetry (dopamine transporter [6]): decrease in dopamine uptake

COC(=O)[C@H]1C(c2ccc(I)cc2)C[C@@H]2CC[C@H]1N2C (stereo partly shown) [RTI-55]
RTI-55 Bmax ([14]; protease inhibitors): 6.7 ± 0.8 pmol/mg | Kd ([14]; read-out: RTI-55 KD): 8.3 ± 1.8 nM

NC[C@@H]1O[C@H](O[C@H]2[C@@H](O)[C@H](O[C@@H]3[C@@H](O)[C@H](N)C[C@H](N)[C@H]3O[C@H]3O[C@H](CN)[C@@H](O)[C@H](O)[C@H]3N)O[C@@H]2CO)[C@H](N)[C@@H](O)[C@@H]1O [neomycin]
phospholipase C activity in presence of melittin without or with neomycin ([5]; neomycin 30 µM pretreatment, melittin 1.3 µM, 1 hour): no significant difference

CC(C)(C)[C@]1(O)CCN2C[C@H]3c4ccccc4CCc4cccc(c43)[C@@H]2C1 [butaclamol]
effect of D2 receptor block on [3H]dopamine uptake [15]: no difference in [^3H]dopamine uptake

CCCCC/C=C\C/C=C\C/C=C\C/C=C\CCCC(=O)OCC [Arachidonic acid ethyl ester]
effect on dopamine transporter function (mimicry of arachidonic acid) (dopamine transporter [6]; Ingram and Amara, 2000): does not mimic the effects of arachidonic acid on dopamine transporter function
